# In US20250186379A1, “METHODS AND AGENTS FOR DECREASING INSULIN RESISTANCE” (Whitehead Institute for Biomedical Research, priority 2021, published 2025):
# “Also recorded” adds a separate entry of the source.
# Tests used:
# [1] = tested on: IR condensates; assay: tc-PALM of IR cluster/condensate dynamics in HepG2 cells expressing IR-Dendra2; assay type: cell-based, human
# Experimental: Widefield Live-cell super-resolution imaging was performed in a photo-activation localization microscopy (PALM) approach using a Nikon Eclipse Ti microscope with a 100× oil immersion objective. The 405 nm and 561 nm laser beams were combined in an external platform with customized power densities to image Dendra2-tagged molecules as previously reported (56). Cells were maintained at 37° C. in a temperature-controlled platform during imaging, and the CO2 level was maintained at 5% by Leibovitz's L-15 Medium with no phenol red (ThermoFisher #21083027). In each imaging cycle, a 2400-frame video stream including a (256 pixel)2 region of interest (ROI) was recorded in 20 Hz acquisition rate with the EM-gain setting as 1000 on an Andor iXon Ultra 897 EMCCD. Each pixel conjugates with a (160 nm)2 area on the sample side. After PALM imaging, the Hoechst-stained nuclei of the same ROI were imaged with stronger 405 nm excitation through DAPI filter.
# Detection localization. For each frame of a raw image, Gaussian particles were identified by pixelwise test of hypotheses, whose peak positions were individually fitted at subpixel resolution by maximum-likelihood regression with Gauss-Newton method (91). An additional deflation loop was performed to avoid missing dimmer particles when they were overshadowed by neighboring brighter ones. This multi-particle detection localization procedure has been integrated in a published, open-source MATLAB software called MTT (91).
# Spatial clustering. DBSCAN and “manual selection” hybridized approach was applied to group spatially clustered detections via the qSR software (92). Firstly, DBSCAN was performed to generalize a proposal map of spatially clustered detections. Given that IR condensates can be tiny and transient, a “loose” parameter setting was used when performing the DBSCAN (length-scale=120 nm, N_min=4). This parameter combination was determined by comparing the rendered super-resolved reconstructions with the color-coded cluster maps until the clustering results visually make sense for most ROIs. Secondly, individual clusters were manually selected based on the clustering proposal map from last step. Some custom MATLAB code was used to reconstruct the IR distribution of each ROI superposed with the corresponding nuclei image, which was further cross-compared with the corresponding cluster map to determine which region each cluster belongs to (i.e., plasma-membrane, cytoplasm, or nucleus).
# Temporal clustering. For each spatial cluster, time-correlated PALM (tc-PALM) analysis was performed along the time axis to extract the truly colocalized, time-correlated multimolecule bursting events (11, 13-14). The lifetime of a burst is simply defined as the timespan from the first to the last detections. More details about the quantitative validations and statistics of tc-PALM analysis can be found in NOTES and FIG. 11.
# Widefield, live-cell, super-resolution imaging was performed in a photo-activation localization microscopy (PALM) approach using a Nikon Eclipse Ti microscope with a 100× oil immersion objective. The 405 nm and 561 nm laser beams were combined in an external platform with customized power densities to image Dendra2-tagged molecules as previously reported^24. Cells were cultured on imaging dishes (MatTek, P35G-1.5-20-C) and then imaged while maintaining both the temperature at 37° C. with a temperature-controlled platform and the level of CO2 at 5% with Leibovitz's L-15 Medium with no phenol red (Thermo Fisher, 21083027). During each imaging cycle, a 2400-frame video stream including a (256 pixel)^2 region of interest (ROI) was recorded in 20 Hz acquisition rate with the EM-gain setting as 1000 on an Andor iXon Ultra 897 EMCCD. Each pixel conjugates with a (160 nm)^2 area on the sample side. After PALM imaging, the Hoechst-stained nuclei of the same ROI were imaged using a stronger 405 nm excitation through DAPI filter. […] Following a 5-minute wait, the cells were imaged for 15-20 minutes.
# [2] = tested on: IR puncta; assay: Immunofluorescence for IR in human primary adipocytes; assay type: cell-based; settings: for IR incorporation into puncta: 3 nM insulin 5 minutes
# Experimental: Primary pre-adipocytes from (ATCC, PCS-210-010) were cultured in Fibroblast Growth Kit-Low Serum (ATCC PCS-201-041), as per manufacturer's instructions. Cells for experiments were dissociated and plated at 18,000 cells/cm2. Two days later pre-adipocytes were differentiated in adipocyte differentiation media (ATCC PCS-500-050), as per manufacturer's instructions. Briefly, cells were washed and medium was replaced with adipocyte differentiation initiation medium. After 48 hours, half the medium was replaced. At day 4, medium was changed to adipocyte differentiation maintenance medium, and replaced every three days. At day 12, cells were rinsed and incubated in DMEM (Thermo Fisher, 11885084) with 0.1 or 3 nM of insulin for 5 days, replacing medium every other day. In the last 24 hours, 12.5 μM metformin was added. On day 17, cells were prepared for the assays by rinsing, and 30 minutes of washing. Afterwards, for imaging, cells were exposed to 3 nM insulin for 5 minutes, rinsed with PBS and fixed in 4% PFA for 15 minutes at room temperature. For pAKT ELISAs cells were exposed to 3 nM insulin for 15 minutes and harvested in cell lysis buffer (Cell Signaling Technology, #9803) with phosphatase inhibitor (Thermo Fisher Scientific, 78442).
# For adipocytes, following differentiation, cells were cultured with EMEM for 2 days and with EMEM containing either physiological (0.1 nM) or pathological (3 nM) concentrations of insulin for 2 days. Cells were then cultured with EMEM containing either physiological (0.1 nM) or pathological (3 nM) of insulin or with pathological (3 nM) concentrations of insulin and 12.5 μM of metformin for 1 day. Cells were then washed with EMEM and acutely stimulated with or without 3 nM insulin for 5 minutes prior to cell collection for immunofluorescence or ELISA.
# HepG2 cells, human liver spheroids, human primary adipocytes and human tissue liver sections were fixed in 4% PFA (VWR, BT140770-10X10) in PBS (Life Technologies, AM9625) for 10 minutes at room temperature. […]
# [3] = insulin resistant (3 nM insulin) versus sensitive (0.1 nM) cells
# [4] = insulin sensitive cells, 3 nM insulin 5 min
molecule,measurement,setting,value
TNFα,IR dynamics in condensates,"[1]; HepG2 IR-Dendra2 cells, pathological TNFα or high nutrients (FIGS. 36A-36B)",decreased IR dynamics in condensates
"insulin: insulin (Sigma Aldrich, I9278-5ML) used for acute stimulation and chronic physiological or pathological exposure",average number of IR-Dendra2 detections per cluster,"[1]; entire cells, insulin-stimulated (3 nM, 5 min), 22 (range 4-609) in unstimulated cells",27 (range 4-539)
same,"increase of percentage of long-lived IR clusters, cytoplasm",[1]; [3],1.4 fold
same,"increase of percentage of long-lived IR clusters, nucleus",[1]; [3],3.6 fold
same,number of IR clusters in the cytoplasm and nucleus,[1]; [4],produced an increase; also recorded: resulted in an increase
same,number of IR molecules / IR detections in clusters,[1]; [4],an increase in the number of IR molecules in these clusters; also recorded: an increase in the number of IR detections in clusters
same,"average number of IR molecules per cluster, nucleus","[1]; insulin stimulated cells (3 nM, 5 min), 9 (2-46) in unstimulated cells",14 (2-283)
same,"average number of IR molecules per cluster, cytoplasm","[1]; insulin stimulated cells (3 nM, 5 min), 14 (2-264) in unstimulated cells",19 (2-295)
same,"percentage of long-lived IR condensates in the plasma membrane, cytoplasm and nucleus",[1]; insulin-resistant (3 nM insulin) versus sensitive cells (FIG. 18B),also increased
same,"average lifetime of short-lived IR clusters, nucleus","[1]; pathologic insulin (3 nM), insulin resistant cells, 5.9 s in sensitive cells (FIG. 4B)",16 s
same,"average lifetime of short-lived IR clusters, cytoplasm","[1]; pathologic insulin (3 nM), insulin resistant cells, 9.8 s in sensitive cells (FIG. 4B)",13.2 s
same,"average lifetime of short-lived IR condensates, plasma membrane","[1]; pathologic insulin (3 nM), insulin-resistant cells, 6.8 s in sensitive cells (FIG. 18B)",11.8 s
same,"average lifetime of short-lived IR condensates, nucleus","[1]; pathologic insulin (3 nM), insulin-resistant cells, 7.0 s in sensitive cells (FIG. 18B)",12.9 s
same,"average lifetime of short-lived IR condensates, cytoplasm","[1]; pathologic insulin (3 nM), insulin-resistant cells, 10.0 s in sensitive cells (FIG. 18B)",15.8 s
same,IR incorporation into puncta,[2]; insulin-resistant adipocytes,less able to promote further IR incorporation into puncta
same,IR incorporation into puncta,[2]; insulin-sensitive adipocytes,promoted further IR incorporation into these puncta
"CN(C)C(=N)N=C(N)N [metformin, reference compound]","IR condensate lifetimes in the plasma membrane, cytoplasm and nucleus","[1]; insulin-resistant cells, 12.5 μM metformin, after insulin washout (FIG. 18B)","rescued condensate lifetimes in the plasma membrane, cytoplasm and nucleus to times that were similar to those in insulin-sensitive cells"
same,IR condensate lifetime in insulin-sensitive cells,"[1]; insulin-sensitive HepG2 IR-Dendra2 cells, 12.5 μM metformin for 1 day (FIG. 37)",did not decrease IR condensate lifetime; also recorded: does not decrease IR condensate lifetime
same,IR cluster lifetimes in the cytoplasm and nucleus,"[1]; metformin-treated insulin resistant cells (FIG. 5C), no acute insulin stimulation",reduced cluster lifetimes in the cytoplasm and nucleus to times that were similar to those in insulin sensitive cells
same,IR cluster lifetimes in the plasma membrane,"[1]; metformin-treated insulin resistant cells, 12.5 M metformin as printed (FIG. 5C), no acute insulin stimulation",little effect
same,frequency of nuclear IR clusters with 0-25 s lifetimes,[1]; metformin-treated resistant cells vs resistant cells (FIG. 5C),increased
same,frequency of plasma membrane and nuclear IR condensates with 0-13 s lifetimes,[1]; metformin-treated resistant cells vs resistant cells (FIG. 18B),increased
same,IR clusters in the cytoplasm with a lifetime of 0-25 s,"[1]; metformin-treated resistant cells, ~40% in insulin resistant cells (FIG. 5C)",~60%
same,IR condensates in the cytoplasm with a lifetime of 0-13 s,"[1]; metformin-treated resistant cells, ~40% in insulin-resistant cells (FIG. 18B)",~60%
same,IR incorporation into puncta (IR signal),"[2]; insulin-resistant adipocytes, 12.5 μM metformin 1 day, 3 nM insulin 5 min",reversed
